The subject of data set [1] is M. tuberculosis H37Ra. As to the kind of experiment: microbe, parasite or virus in culture. Particulars: for MIC: Mycobacterium tuberculosis, H37RA, read-out: MIC against H37Ra. Format: cell-based, Mycobacterium tuberculosis.
The test system of data set [2] is H37Rv. As to the kind of experiment: MIC susceptibility testing against H37Rv. Format: cell-based, Mycobacterium tuberculosis. Particulars: for MIC: Mycobacterium tuberculosis; for Fold increase: B18 versus TBA-7371.
In data set [3] the test system is Y48 (MDR). As to the kind of experiment: microbe, parasite or virus in culture. Type of data set: cell-based, M. tuberculosis. Particulars: for MIC: Mycobacterium tuberculosis.
The subject of data set [4] is Y17 (MDR). As to the kind of experiment: microbe, parasite or virus in culture. Format: cell-based, M. tuberculosis. To be noted: for MIC: Mycobacterium tuberculosis.
Data set [5] concerns Y198 (XDR). As to the kind of experiment: microbe, parasite or virus in culture. Format: cell-based, M. tuberculosis. Particulars: for MIC: Mycobacterium tuberculosis.
Data set [6] has as its system A549. As to the kind of experiment: Cell viability assay (MTT), A549. Type of data set: cell-based. To be noted: Homo sapiens, 48 h. As for the experimental part: (§1) Cell viabilities were measured by 3-(4,5-dimethylthiazol-2-yl)−2,5-diphenyltetrazolium bromide (MTT) assay. Briefly, 20 µL of 5 mg/mL MTT solution was added to the culture medium and incubated at 37°C for 3 h. Then 50 µL of 20% (wt/vol) SDS was directly added to each well and incubated at 37°C overnight. The plates were shaken for 15 s and the […] reading were obtained at 570 nm wavelength. The IC50 values were calculated using the GraphPad Prism 8 software.

Data set [7] concerns VERO. As to the kind of experiment: Cell viability assay (MTT), VERO. Type of data set: cell-based. Particulars: Chlorocebus sabaeus, 48 h. The method, then: as §1
Data set [8] has as its system Staphylococcus aureus ATCC29213. As to the kind of experiment: MIC against other strains, agar double dilution. Particulars: ATCC29213, 24 h.
Data set [9] concerns S. aureus ATCC33591. As to the kind of experiment: MIC against other strains, agar double dilution. Particulars: Staphylococcus aureus, ATCC33591, 24 h.
In data set [10] the test system is S. epidermidis ATCC12228. As to the kind of experiment: MIC against other strains, agar double dilution. To be noted: Staphylococcus epidermidis, ATCC12228, 24 h.
In data set [11] the test system is Enterococcus faecalis ATCC29212. As to the kind of experiment: MIC against other strains, agar double dilution. Particulars: ATCC29212, 24 h.
The test system of data set [12] is E. faecium ATCC19434. As to the kind of experiment: MIC against other strains, agar double dilution. To be noted: Enterococcus faecium, ATCC19434, 24 h.
Data set [13] deals with Streptococcus pneumoniae ATCC49619. As to the kind of experiment: MIC against other strains, agar double dilution. To be noted: ATCC49619, 24 h.
Data set [14] relates to Escherichia coli ATCC25922. As to the kind of experiment: MIC against other strains, agar double dilution. To be noted: ATCC25922, 24 h.
The subject of data set [15] is E. coli ATCC35218. As to the kind of experiment: MIC against other strains, agar double dilution. To be noted: Escherichia coli, ATCC35218, 24 h.
In data set [16] the test system is Klebsiella pneumoniae ATCC700603. As to the kind of experiment: MIC against other strains, agar double dilution. To be noted: ATCC700603, 24 h.
Data set [17] has as its system Pseudomonas aeruginosa ATCC27853. As to the kind of experiment: MIC against other strains, agar double dilution. To be noted: ATCC27853, 24 h.
Data set [18] concerns the target T1, human PDE6C (Homo sapiens, UniProt P51160).
T1 construct: purchased BPS 60060
As to the kind of experiment: IMAP fluorescence polarization assay against PDE6C. Format: biochemical. (Polarisation of emitted light reports the rotation of a fluorescent probe.)
Procedure: Prepare assay buffer and stop buffer were prepared. […] Fluorescein Amidite - cyclic Guanosine Monophosphate (FAM-cGMP) was added in the 1× assay buffer for PDE6C, which was the 2× substrate solution. Two times enzyme solution was transferred to the assay plate: (i) assay plate already contained corresponding volume of compound in 100% DMSO; (ii) add 2× enzyme solution to each well of the 384-well assay plate; and (iii) incubate at room temperature for 15 min. Two times substrate solution was transferred to the assay plate. PDE reaction and termination: (i) incubate at 25°C for 40 min; (ii) add stop buffer to stop reaction, and incubate at RT for 60 min. Data were collected on Envision (Perkin Elmer). Data were fitted in Excel to obtain inhibition values using equation (1). Equation (1): Inh % = (Max − Signal)/(Max − Min) × 100. Fit the data in XL-Fit to obtain IC50 values using equation (2). Equation (2): Y = Bottom + (Top − Bottom)/[1 + (IC50/X) × HillSlope]. Y is the % inhibition and X is the compound concentration.

The nature of data set [19]: physchem. To be noted: 37 °C, water, thermodynamic from solid. Type of data set: physicochemical.
Procedure: Aqueous solubility of selected compounds was determined by High Performance Liquid Chromatography (HPLC) analysis. […] The absorption intensity of different concentrations of solutions was obtained by HPLC. The linear regression equation between absorption intensity and concentration was obtained by statistical method (R ^2 >0.99). A supersaturated aqueous solution of the target compound was prepared and shaken in 37°C water bath for 24 h. The supersaturated solution was centrifuged and filtered. The absorption intensity of the supersaturated solution was obtained by HPLC. The concentration of saturated aqueous solution was obtained by linear regression equation, which was the aqueous solubility of target compound.
Data set [20] is described as follows: in vitro. Type of data set: in vitro ADME. Particulars: rat, plasma, pH 7.4.
Procedure: 0.1 M sodium phosphate and 0.15 M NaCl buffer (pH = 7.4 ± 0.1) were preheated. The frozen plasma was thawed at 37°C. Plasma was centrifuged at 12,000 rpm for 5 min to remove clots. Pipette and collect the supernatant as the plasma to be used in the experiment. Dialysis membrane strips were soaked in distilled water for an hour. Add 20% by volume ethanol and soak for a further 20 min. The membrane strips were then rinsed in distilled water three times before use. Five microliters of 10 mM stock solution were added into 95 µL of acetonitrile (ACN) for reference and test compounds, which was 0.5 mM solution A. Eight microliters of 10 mM stock solution were added into 192 µL of ACN for reference and test compounds, which was 0.02 mM solution B. A 96-well plate with 380 µL aliquots of plasma was preloaded in the wells designated for plasma, respectively. Twenty microliters of solution B (0.02 mM) were spiked into the pre-loaded plasma in the 96-well plate. The final concentration is 1 µM, containing 0.01% DMSO. Aliquots of 100 µL of blank dialysis buffer were applied to the receiver side of dialysis chambers. Then, aliquots of 100 µL of the plasma spiked with test and reference compounds were applied to the donor side of the dialysis chambers (always add the blank buffer to the receiver first, clearly mark the buffer and plasma chamber holes to avoid cross-contamination). […]

Converted amounts (≈) assume the structure as drawn.

T1 sequence (P51160 whole entry): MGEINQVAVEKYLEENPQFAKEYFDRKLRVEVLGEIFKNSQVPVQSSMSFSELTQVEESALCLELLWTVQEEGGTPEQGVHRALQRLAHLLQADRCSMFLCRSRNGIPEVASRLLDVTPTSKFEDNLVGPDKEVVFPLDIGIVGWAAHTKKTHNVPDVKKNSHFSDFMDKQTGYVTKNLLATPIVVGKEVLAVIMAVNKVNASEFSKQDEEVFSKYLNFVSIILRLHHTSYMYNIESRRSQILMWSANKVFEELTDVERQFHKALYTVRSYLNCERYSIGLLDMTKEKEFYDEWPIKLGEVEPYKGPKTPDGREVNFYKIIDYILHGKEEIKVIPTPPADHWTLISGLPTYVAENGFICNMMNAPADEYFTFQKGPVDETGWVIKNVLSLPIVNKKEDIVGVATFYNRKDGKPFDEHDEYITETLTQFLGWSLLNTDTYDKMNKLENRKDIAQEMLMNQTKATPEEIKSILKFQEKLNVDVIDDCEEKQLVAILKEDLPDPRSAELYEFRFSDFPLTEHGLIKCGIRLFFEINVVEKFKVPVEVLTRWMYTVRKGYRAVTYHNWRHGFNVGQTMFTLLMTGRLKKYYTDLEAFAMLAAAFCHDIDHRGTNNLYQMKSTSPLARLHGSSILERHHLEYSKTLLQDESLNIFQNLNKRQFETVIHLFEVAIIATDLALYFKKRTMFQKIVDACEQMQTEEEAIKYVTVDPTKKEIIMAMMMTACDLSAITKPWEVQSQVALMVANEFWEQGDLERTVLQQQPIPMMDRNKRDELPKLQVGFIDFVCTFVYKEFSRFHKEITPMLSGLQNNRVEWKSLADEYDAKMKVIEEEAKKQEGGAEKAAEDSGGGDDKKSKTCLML

Usually IC50 stands for the concentration that inhibits the measured activity by half. The low end stands for higher potency, the high end for lower potency. `COc1ncnc(Cn2cc(C(=O)NCCO)c3ncc(C)cc32)c1C` [TBA-7371, reference compound]: the MIC is 0.18 µg/mL (≈ 0.506 µM) in [1]; 2.5 µg/mL (≈ 7.03 µM) in data set [2] (72 h, 3 days); 0.625 µg/mL (≈ 1.76 µM) in data set [2] (168 h, 7 days); 0.6 µg/mL (≈ 1.69 µM) in [3]; 0.6 µg/mL (≈ 1.69 µM) in [4]; 1.25 µg/mL (≈ 3.52 µM) in [5]. The MIC in data set [8], in data set [9], in [10], in data set [11], in data set [12] and in [13] was above 64 µg/mL each time. The MIC in [14], in data set [15], in data set [16] and in data set [17] was above 64 µg/mL in each case. Besides, the IC50 in data set [6] and in [7] was above 40 µM in each case.

For the compound `COc1ncc(C(F)(F)F)cc1Cn1ccc2c(C(=O)NCC(F)F)cc(C)cc21` [A10, N-(2,2-difluoroethyl)-1-((2-methoxy-5-(trifluoromethyl)pyridin-3-yl)methyl)-6-methyl-1H-indole-4-carboxamide], the MIC in [1] was above 6.25 µg/mL.

`Cc1nc(C)c(CN2CCOc3c(C(=O)NCC(F)F)cc(Br)cc32)nc1C` [B2]: in data set [1], the “MIC against H37Ra” value worked out at 0.39 and the MIC worked out at 0.39 µg/mL (≈ 0.857 µM).

The solubility is the dissolved amount per volume that the medium holds. A higher solubility goes with much dissolved substance. For orientation: fraction unbound means the share of the substance not bound to proteins or other matrix. In the case of `Cc1nc(C)c(CN2CCOc3c(C(=O)NCC(F)(F)F)cc(C4CC4)cc32)nc1C` [B18, 6-cyclopropyl-N-(2,2,2-trifluoroethyl)-4-((3,5,6-trimethylpyrazin-2-yl)methyl)-3,4-dihydro-2H-benzo[b][1,4]oxazine-8-carboxamide], in [1], the MBC/MIC is listed as below 4. Besides, the “MIC against H37Ra” value in data set [1] came out at 0.18. Moreover, the MIC turned out to be 0.18 µg/mL (≈ 0.414 µM) in data set [1]; 0.625 µg/mL (≈ 1.44 µM) in data set [2] (72 h, 3 days); 0.625 µg/mL (≈ 1.44 µM) in data set [2] (168 h, 7 days); 0.6 µg/mL (≈ 1.38 µM) in [3]; 0.6 µg/mL (≈ 1.38 µM) in [4]; 5 µg/mL (≈ 11.5 µM) in [5]. Moreover, the MIC in [8], in [9], in data set [10], in [11], in data set [12] and in data set [13] was above 64 µg/mL each time. The MIC in data set [14] was 64 µg/mL (≈ 147 µM); in data set [15], above 64 µg/mL; in data set [16] it was 64 µg/mL (≈ 147 µM); in [17], 64 µg/mL (≈ 147 µM). The Fold increase worked out at 4 in data set [2] (3 days); 1 in [2] (7 days); 1 in [3] ([…], B18 versus TBA-7371); 1 in data set [4] ([…], B18 versus TBA-7371); 0.25 in data set [5] ([…], B18 versus TBA-7371). The IC50 in data set [18] was 81 µM; in data set [6], above 40 µM; in [7], above 40 µM. In data set [19], this compound returned a solubility at 24 h of 21 µg/mL (≈ 48.3 µM). Also, in [20], the fraction unbound at 5 h, 1 µM is 0.042.

On to `Cc1ccc(CN2CCOc3c(C(=O)NCC(F)(F)F)cc(C4CC4)cc32)cc1` [B21, 6-cyclopropyl-4-(4-methylbenzyl)-N-(2,2,2-trifluoroethyl)-3,4-dihydro-2H-benzo[b][1,4]oxazine-8-carboxamide], for which the MIC in data set [1] is above 25 µg/mL.

Take `O=C(NCC(F)(F)F)c1cc(C2CC2)cc2c1OCCN2Cc1ccc2ccccc2c1` [B20, 6-cyclopropyl-4-(naphthalen-2-ylmethyl)-N-(2,2,2-trifluoroethyl)-3,4-dihydro-2H-benzo[b][1,4]oxazine-8-carboxamide]: the MIC in [1] was above 25 µg/mL.

Consider `COc1ccc(F)c(F)c1Cn1ccc2c(C(=O)NCCF)cc(Br)cc21` [A1], for which the MIC in [1] was above 6.25 µg/mL.

For the compound `Cc1nc(C)c(CN2CCOc3c(C(=O)NC4CCC(F)(F)CC4)cc(C4CC4)cc32)nc1C` [B32, 6-cyclopropyl-N-(4,4-difluorocyclohexyl)-4-((3,5,6-trimethylpyrazin-2-yl)methyl)-3,4-dihydro-2H-benzo[b][1,4]oxazine-8-carboxamide], the MIC in [1] is above 25 µg/mL.

In the case of `COc1c(CN2CCOc3c(C(=O)NCCO)cc(Br)cc32)ccc(F)c1F` [B10, 6-bromo-4-(3,4-difluoro-2-methoxybenzyl)-N-(2-hydroxyethyl)-3,4-dihydro-2H-benzo[b][1,4]oxazine-8-carboxamide], the MIC in data set [1] is above 100 µg/mL.

As to `COc1ccc(F)c(F)c1CN1CCOc2c(C(=O)NCC(F)F)cc(Br)cc21` [B7, 6-bromo-4-(2,3-difluoro-6-methoxybenzyl)-N-(2,2-difluoroethyl)-3,4-dihydro-2H-benzo[b][1,4]oxazine-8-carboxamide], in data set [1], the MIC was above 100 µg/mL.
